For one experiment, the target named is Insulin receptor (Homo sapiens, UniProt P06213). The following applies: at 10 µM.
Experiment [1] addresses Cyclin-dependent kinase 15 (Homo sapiens) (UniProt Q96Q40). Put plainly: Selectivity interaction (KinomeScan (DiscoverX)) EUB0001079a CDK15. The following applies: at 1 µM.
Experiment [2] concerns the target Casein kinase I isoform epsilon (Homo sapiens, UniProt P49674). Put plainly: Selectivity interaction (KinomeScan (DiscoverX)) EUB0000092b CSNK1E. Conditions: at 10 µM.
The target in experiment [3] is T1, Phosphatidylinositol 5-phosphate 4-kinase type-2 gamma (Homo sapiens) (UniProt Q8TBX8).
T1 sequence (whole entry): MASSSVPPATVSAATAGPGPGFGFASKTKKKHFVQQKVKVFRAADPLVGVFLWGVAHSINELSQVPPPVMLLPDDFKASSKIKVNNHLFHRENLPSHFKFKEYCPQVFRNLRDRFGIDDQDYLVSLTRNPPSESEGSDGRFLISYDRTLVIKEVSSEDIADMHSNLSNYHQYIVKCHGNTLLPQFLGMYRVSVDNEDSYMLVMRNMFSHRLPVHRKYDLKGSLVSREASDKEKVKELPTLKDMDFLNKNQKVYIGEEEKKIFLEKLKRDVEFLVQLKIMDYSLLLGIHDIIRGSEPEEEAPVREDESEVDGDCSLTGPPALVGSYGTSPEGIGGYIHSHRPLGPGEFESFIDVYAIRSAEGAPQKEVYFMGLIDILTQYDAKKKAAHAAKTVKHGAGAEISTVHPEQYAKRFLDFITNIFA
Description: Selectivity interaction (KinomeScan (DiscoverX)) EUB0000045b PIP4K2C. Conditions: at 1 µM.

Experiment [4] has as its target T2, Aurora kinase A (Homo sapiens) (UniProt O14965).
T2 sequence (whole entry): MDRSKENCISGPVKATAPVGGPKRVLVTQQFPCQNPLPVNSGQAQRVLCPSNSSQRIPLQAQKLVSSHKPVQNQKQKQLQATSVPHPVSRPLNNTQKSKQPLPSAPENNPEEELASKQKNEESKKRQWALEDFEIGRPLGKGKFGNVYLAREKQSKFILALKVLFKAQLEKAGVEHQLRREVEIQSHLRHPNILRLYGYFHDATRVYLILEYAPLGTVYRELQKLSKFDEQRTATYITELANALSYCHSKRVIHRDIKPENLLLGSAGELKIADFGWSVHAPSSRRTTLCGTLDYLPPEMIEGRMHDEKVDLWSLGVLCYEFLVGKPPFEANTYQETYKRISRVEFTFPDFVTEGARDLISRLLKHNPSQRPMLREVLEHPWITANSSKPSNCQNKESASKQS
Description: Selectivity interaction (KinomeScan (DiscoverX)) EUB0000045b STK6.

Experiment [5] addresses Interleukin-1 receptor-associated kinase 1 (Homo sapiens) (UniProt P51617). Put plainly: Selectivity interaction (KinomeScan (DiscoverX)) EUB0000666a IRAK1. The following applies: at 10 µM.
Experiment [6] concerns the target T3, Serine/threonine-protein kinase Nek3 (Homo sapiens) (UniProt P51956).
T3 sequence (whole entry): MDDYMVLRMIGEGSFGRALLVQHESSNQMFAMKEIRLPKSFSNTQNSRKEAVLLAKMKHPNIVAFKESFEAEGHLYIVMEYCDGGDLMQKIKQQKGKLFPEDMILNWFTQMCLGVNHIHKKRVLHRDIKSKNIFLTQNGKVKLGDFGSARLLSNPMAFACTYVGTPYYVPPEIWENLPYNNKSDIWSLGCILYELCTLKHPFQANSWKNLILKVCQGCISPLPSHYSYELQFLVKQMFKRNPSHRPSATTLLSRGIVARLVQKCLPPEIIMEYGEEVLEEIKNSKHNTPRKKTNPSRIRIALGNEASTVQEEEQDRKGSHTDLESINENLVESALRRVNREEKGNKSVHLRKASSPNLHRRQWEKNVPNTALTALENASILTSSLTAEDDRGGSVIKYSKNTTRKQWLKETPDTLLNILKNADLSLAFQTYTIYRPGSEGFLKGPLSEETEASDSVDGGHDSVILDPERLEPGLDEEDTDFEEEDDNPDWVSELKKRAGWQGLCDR
Description: Selectivity interaction (KinomeScan (DiscoverX)) EUB0000607a NEK3. The following applies: at 10 µM.

Experiment [7] concerns the target Microtubule-associated serine/threonine-protein kinase 1 (Homo sapiens) (UniProt Q9Y2H9). Put plainly: Selectivity interaction (KinomeScan (DiscoverX)) EUB0000607a MAST1. Conditions: at 10 µM.
The next experiment concerns the target Focal adhesion kinase 1 (Homo sapiens, UniProt Q05397). Description: Selectivity interaction (ActivX KiNativ screen (kinase selectivity in THP-1 cell lysates)) EUB0000639a PTK2. The class given is subcellular. Conditions: lysate, at 0.01 µM.
Experiment [8] concerns the target Tyrosine-protein kinase Fgr (Homo sapiens) (UniProt P09769). Description: Selectivity interaction (Kinase panel (Invitrogen)) EUB0000639a FGR. The following applies: at 200 nM.
The target in experiment [9] is T4, Serine/threonine-protein kinase ULK3 (Homo sapiens) (UniProt Q6PHR2).
T4 sequence (whole entry): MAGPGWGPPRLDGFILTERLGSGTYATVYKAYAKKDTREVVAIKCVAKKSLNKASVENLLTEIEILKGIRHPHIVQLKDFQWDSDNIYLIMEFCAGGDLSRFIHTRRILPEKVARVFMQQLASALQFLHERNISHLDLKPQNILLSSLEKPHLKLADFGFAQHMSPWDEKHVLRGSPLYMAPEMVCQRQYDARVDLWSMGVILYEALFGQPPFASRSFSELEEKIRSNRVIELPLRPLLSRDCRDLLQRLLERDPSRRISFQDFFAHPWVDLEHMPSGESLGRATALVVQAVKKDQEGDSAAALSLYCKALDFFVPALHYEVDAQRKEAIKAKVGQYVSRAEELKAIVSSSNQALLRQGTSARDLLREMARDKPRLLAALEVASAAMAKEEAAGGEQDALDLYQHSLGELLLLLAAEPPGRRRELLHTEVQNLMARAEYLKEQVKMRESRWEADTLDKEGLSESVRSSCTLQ
Description: Selectivity interaction (KinomeScan (DiscoverX)) EUB0000229b ULK3. Conditions: at 10 µM.

For experiment [10], the target named is Bromodomain-containing protein 3 (Homo sapiens) (UniProt Q15059). Put plainly: Selectivity interaction (Human bromodomain panel (DSF assay)) EUB0000233b BRD3. Background: Differential scanning fluorimetry follows unfolding on heating by fluorescence.
Sequence of Bromodomain-containing protein 3 (Homo sapiens) (Q15059 2-726 limits assumed): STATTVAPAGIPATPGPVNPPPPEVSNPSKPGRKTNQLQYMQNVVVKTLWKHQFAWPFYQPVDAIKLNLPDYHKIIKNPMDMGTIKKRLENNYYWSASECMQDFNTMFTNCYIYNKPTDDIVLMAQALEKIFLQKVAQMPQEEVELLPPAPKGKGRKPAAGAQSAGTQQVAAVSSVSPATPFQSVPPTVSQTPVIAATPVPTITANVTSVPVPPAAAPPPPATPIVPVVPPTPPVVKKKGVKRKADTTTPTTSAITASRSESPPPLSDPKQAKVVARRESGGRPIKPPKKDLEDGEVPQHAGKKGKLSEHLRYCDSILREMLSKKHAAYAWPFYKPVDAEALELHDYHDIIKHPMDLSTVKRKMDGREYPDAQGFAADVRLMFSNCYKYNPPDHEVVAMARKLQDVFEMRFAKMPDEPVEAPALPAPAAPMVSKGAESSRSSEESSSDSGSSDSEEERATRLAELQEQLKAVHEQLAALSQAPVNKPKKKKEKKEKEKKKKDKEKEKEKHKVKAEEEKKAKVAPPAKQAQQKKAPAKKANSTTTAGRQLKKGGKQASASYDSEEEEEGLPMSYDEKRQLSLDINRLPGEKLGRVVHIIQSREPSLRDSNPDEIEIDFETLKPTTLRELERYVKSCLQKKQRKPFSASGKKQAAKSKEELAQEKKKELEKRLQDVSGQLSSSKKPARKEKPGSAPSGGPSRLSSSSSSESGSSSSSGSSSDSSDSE
Experiment [11] has as its system Proto-oncogene tyrosine-protein kinase receptor Ret (Homo sapiens), P07949 [V804M]. Description: Selectivity interaction (KinomeScan (DiscoverX)) EUB0000311b RET. Conditions: at 1 µM.
The target in experiment [12] is Mitogen-activated protein kinase kinase kinase 4 (Homo sapiens) (UniProt Q9Y6R4). Put plainly: Selectivity interaction (KinomeScan (DiscoverX)) EUB0000595a MAP3K4. The following applies: at 10 µM.
The target of experiment [13] is Transient receptor potential cation channel subfamily M member 6 (Homo sapiens) (UniProt Q9BX84). Put plainly: Selectivity interaction (KinomeScan (DiscoverX)) EUB0000595a TRPM6. Conditions: at 10 µM.
Sequence of Transient receptor potential cation channel subfamily M member 6 (Homo sapiens) (Q9BX84 whole entry): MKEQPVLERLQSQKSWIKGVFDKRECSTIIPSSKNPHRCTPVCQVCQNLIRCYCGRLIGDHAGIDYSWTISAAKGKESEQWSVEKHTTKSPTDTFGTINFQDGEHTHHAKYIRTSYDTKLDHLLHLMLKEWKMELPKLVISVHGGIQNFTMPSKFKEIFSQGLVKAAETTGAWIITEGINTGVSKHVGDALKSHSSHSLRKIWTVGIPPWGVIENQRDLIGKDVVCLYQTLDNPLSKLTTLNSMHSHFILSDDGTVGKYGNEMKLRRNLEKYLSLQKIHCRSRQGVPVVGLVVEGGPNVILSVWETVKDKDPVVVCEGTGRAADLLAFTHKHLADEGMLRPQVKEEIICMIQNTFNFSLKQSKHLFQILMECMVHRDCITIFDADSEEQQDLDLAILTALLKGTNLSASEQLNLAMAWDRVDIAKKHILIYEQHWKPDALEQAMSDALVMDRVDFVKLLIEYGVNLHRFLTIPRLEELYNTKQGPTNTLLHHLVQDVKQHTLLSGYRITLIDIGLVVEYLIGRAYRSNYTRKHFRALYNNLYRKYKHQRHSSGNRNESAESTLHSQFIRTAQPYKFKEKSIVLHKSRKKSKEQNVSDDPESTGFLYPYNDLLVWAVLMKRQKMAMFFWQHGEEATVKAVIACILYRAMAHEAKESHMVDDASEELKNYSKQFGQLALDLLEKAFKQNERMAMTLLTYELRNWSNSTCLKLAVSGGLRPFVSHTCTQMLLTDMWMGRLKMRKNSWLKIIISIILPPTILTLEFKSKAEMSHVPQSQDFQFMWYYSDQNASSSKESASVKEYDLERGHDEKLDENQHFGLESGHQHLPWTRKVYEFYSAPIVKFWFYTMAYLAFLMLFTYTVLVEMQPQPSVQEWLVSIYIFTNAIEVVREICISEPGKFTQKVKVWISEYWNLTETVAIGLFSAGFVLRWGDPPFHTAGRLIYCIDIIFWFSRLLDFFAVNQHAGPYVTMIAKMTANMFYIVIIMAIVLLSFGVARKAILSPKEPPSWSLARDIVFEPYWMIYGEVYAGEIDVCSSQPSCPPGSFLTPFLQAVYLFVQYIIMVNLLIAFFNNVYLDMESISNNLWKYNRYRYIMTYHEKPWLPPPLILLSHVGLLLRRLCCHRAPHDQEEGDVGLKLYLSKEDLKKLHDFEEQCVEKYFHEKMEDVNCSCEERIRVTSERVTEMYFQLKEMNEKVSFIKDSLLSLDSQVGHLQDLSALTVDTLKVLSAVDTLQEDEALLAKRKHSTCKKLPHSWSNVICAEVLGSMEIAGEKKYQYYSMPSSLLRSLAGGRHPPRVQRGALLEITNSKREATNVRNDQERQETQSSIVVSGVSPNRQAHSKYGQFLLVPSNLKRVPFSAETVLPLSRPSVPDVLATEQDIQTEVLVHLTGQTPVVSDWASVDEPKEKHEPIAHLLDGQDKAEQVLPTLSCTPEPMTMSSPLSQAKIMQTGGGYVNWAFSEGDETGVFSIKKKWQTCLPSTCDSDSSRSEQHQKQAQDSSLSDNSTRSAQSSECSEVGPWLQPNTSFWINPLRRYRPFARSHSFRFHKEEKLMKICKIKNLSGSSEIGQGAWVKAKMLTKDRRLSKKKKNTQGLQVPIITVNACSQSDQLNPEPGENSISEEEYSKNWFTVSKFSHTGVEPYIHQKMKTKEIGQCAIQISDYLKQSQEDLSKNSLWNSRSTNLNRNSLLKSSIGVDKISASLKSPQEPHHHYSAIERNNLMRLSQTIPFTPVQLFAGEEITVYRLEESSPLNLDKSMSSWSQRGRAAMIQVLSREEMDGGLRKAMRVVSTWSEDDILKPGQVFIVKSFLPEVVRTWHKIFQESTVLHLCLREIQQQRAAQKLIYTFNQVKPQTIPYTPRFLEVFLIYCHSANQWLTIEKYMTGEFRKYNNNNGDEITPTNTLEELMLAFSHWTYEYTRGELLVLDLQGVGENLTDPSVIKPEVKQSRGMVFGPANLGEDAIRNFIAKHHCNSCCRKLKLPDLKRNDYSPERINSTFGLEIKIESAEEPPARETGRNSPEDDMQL
Experiment [14] concerns the target Tyrosine-protein kinase SYK (Homo sapiens, UniProt P43405). Description: Selectivity interaction (KinomeScan (DiscoverX)) EUB0000595a SYK. The following applies: at 10 µM.

Bounds are passed on as bounds.

Sequence of Interleukin-1 receptor-associated kinase 1 (Homo sapiens) (P51617 whole entry, looked up): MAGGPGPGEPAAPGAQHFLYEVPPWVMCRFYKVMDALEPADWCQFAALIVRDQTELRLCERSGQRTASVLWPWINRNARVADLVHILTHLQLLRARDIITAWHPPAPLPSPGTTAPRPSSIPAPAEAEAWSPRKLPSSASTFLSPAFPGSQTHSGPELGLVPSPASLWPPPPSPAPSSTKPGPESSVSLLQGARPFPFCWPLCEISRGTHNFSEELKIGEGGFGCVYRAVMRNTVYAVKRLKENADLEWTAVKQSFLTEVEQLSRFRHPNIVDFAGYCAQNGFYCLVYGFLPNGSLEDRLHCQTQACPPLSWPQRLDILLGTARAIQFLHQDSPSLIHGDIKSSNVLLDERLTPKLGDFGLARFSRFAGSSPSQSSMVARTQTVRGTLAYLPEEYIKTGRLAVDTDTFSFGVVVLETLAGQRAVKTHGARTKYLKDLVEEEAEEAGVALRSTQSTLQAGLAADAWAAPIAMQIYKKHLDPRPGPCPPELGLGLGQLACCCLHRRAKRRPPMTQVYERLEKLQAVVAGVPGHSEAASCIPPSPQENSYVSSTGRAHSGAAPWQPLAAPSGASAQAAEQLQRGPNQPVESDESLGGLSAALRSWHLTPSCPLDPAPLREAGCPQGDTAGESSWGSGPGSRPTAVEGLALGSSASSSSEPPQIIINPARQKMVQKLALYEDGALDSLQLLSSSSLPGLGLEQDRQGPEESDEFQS
Sequence of Tyrosine-protein kinase Fgr (Homo sapiens) (P09769 2-529 limits assumed): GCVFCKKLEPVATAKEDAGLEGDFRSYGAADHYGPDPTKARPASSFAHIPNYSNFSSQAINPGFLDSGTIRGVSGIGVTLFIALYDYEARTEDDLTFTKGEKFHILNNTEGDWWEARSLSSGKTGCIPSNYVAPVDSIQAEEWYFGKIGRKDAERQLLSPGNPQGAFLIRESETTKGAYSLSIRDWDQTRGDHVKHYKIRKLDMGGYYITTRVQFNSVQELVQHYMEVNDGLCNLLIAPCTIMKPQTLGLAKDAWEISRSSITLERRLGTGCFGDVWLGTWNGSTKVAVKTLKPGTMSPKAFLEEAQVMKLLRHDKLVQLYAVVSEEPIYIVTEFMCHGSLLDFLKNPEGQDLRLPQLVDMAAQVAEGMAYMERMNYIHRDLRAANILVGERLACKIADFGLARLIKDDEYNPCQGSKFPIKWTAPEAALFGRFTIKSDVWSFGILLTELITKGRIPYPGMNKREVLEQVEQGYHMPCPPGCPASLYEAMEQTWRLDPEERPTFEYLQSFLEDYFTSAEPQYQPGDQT
Sequence of Cyclin-dependent kinase 15 (Homo sapiens) (Q96Q40 whole entry, canonical isoform): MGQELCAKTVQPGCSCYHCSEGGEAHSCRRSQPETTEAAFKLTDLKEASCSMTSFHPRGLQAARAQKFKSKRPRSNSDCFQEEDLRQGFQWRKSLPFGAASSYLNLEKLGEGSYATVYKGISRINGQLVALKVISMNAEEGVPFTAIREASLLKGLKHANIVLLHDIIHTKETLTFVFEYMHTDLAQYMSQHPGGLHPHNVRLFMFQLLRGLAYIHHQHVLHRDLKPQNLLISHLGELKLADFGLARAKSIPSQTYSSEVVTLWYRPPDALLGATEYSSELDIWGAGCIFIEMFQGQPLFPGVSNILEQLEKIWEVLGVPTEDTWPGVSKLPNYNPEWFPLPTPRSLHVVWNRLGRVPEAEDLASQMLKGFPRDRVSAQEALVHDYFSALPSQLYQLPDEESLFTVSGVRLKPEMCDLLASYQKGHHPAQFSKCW
Sequence of Casein kinase I isoform epsilon (P49674 whole entry, looked up, canonical isoform): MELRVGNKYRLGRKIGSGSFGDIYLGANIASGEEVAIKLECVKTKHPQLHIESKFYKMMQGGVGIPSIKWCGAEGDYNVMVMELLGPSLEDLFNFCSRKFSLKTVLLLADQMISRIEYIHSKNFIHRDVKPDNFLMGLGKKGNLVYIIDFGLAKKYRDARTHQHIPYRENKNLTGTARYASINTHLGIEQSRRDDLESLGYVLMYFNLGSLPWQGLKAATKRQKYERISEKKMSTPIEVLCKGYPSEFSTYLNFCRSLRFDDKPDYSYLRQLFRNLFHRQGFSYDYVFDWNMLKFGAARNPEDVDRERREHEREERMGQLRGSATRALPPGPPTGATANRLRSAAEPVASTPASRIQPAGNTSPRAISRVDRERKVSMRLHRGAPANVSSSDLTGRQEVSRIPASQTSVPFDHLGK

Compound `Cc1cc([C@@H](C)Nc2ccccc2C(=O)O)c2nc(N3CCOCC3)cc(=O)n2c1` [AZD-6482] displayed a % of control on Insulin receptor of 100%.

With `Nc1cnc(N2CCc3cc(S(=O)(=O)Nc4c(F)cc(Cl)cc4F)cc(N4CCCC4=O)c32)nc1` [TP-020n], the % of control in experiment [1] was determined as 80%. In turn, `CCC(=O)N1CCN(c2ccc(-n3c(=O)ccc4cnc5ccc(-c6cnc7ccccc7c6)cc5c43)cc2C(F)(F)F)CC1` gave a % of control in experiment [2] of 59%. Turning to `C=CC(=O)Nc1cc(-n2c(=O)ccc3cnc4ccc(-c5ccc(NS(C)(=O)=O)cc5)cc4c32)ccc1C`, the % of control was determined as 5.6% in [3], 75% in experiment [4] (at 1 µM) and 100% in [4] (at 10 µM). On to `O=C(NOC[C@H](O)CO)c1ccc(F)c(F)c1Nc1ccc(I)cc1F`, for which the % of control in experiment [5] was found to be 100%. Turning to `CNC(=O)Nc1ccc(-c2nc(N3CC4CCC(C3)O4)c3cnn(C4CCC5(CC4)OCCO5)c3n2)cc1`, the % of control in experiment [6] was found to be 100%; in experiment [7], 95%.

As for `CC[C@@H]1[C@H](F)C(=O)N[C@@H]1COc1nccc2cc(C(N)=O)c(OC)cc12` [ZIMLOVISERTIB], the % of inhibition is -47.2% at Focal adhesion kinase 1 and 8.5% in [8]. For `COc1cc(N(C)c2ccnc3ccc(C(F)(F)F)cc23)cc(OC)c1OC`, the % binding in experiment [9] amounted to 75%. Take `CN(C)CCCOc1ccc(-c2cc(NCCCn3cccn3)nc(S(C)(=O)=O)n2)cc1`: in experiment [10], the dTM was below 2 K.

`CCc1ccccc1C(=O)Nc1n[nH]c2c(C)c(F)c(C3C(C#N)=C(C)N(C)C(C)=C3C#N)cc12` [BAY-3827] displayed a % of control in experiment [11] of 11%.

In the case of `COCC(=O)NC/C=C/c1ccc2ncnc(Nc3ccc(Oc4ccc(C)nc4)c(C)c3)c2c1` [CP-724714], the % of control worked out at 97% in experiment [12], 100% in experiment [13] and 100% in experiment [14].

Values taken from ChEMBL document CHEMBL5465560, “Selectivity Literature for EUbOPEN Chemogenomic Library” (2024).
